Source: patent publication US6410740B1, “Heterocyclylmethyl-substituted pyrazol derivatives” (Bayer Aktiengesellschaft, priority 1996, dated 2002)
Converted amounts (≈) assume the structure as drawn. Read-outs that look alike come from different tables or passages of the source.

Assays:
[1] = tested on: rabbit aortic rings precontracted with phenylephrine; experiment: Vessel-relaxing action in vitro on isolated aortic rings precontracted with phenylephrine; conditions: Oryctolagus cuniculus, rabbit aorta rings, phenylephrine contraction
Method: Vessel-relaxing Action in vitro
Rings 1.5 mm wide of an aorta isolated from a rabbit are introduced individually, under pretension, in 5 ml organ baths with Krebs-Henseleit solution warmed to 37° C. and gassed with carbogen. The contraction force is amplified and digitalized and recorded in parallel on a line recorder. To generate a contraction, phenylephrine is added cumulatively to the bath in an increasing concentration.
(§1) After several control cycles, the substance to be investigated is investigated in each further pass in each case in an increasing dosage, and a comparison is made with the level of the contraction achieved in the last preliminary pass. The concentration necessary to reduce the level of the control value by 50% (IC50) is calculated from this. The standard application volume is 5 μl.
as §1, with “this.” for “this. The standard application volume is 5 μl.”
The standard application volume is 5 μl.

[2] = tested on: human platelets stimulated with collagen; experiment: Inhibition of platelet aggregation in vitro (collagen-induced, platelet-rich plasma); assay type: cell-based; conditions: human PRP, 37° C.
Method: Inhibition of Platelet Aggregation in vitro
To determine the platelet aggregation-inhibiting action, blood from healthy subjects of both sexes was used. One part of 3.8% strength aqueous sodium citrate solution was admixed to 9 parts of blood as an anticoagulant. Platelet-richer citrate plasma (PRP) is obtained from this blood by means of centrifugation.
(§2) For the investigations, 445 μl of PRP and 5 μl of the active compound solution were preincubated in a water-bath at 37° C. The platelet aggregation was then determined in an aggregometer at 37° C. using the turbidometric method. For this, 50 μl of collagen, an aggregation-inducing agent, were added to the preincubated sample and the change in optical density was recorded. For the quantitative evaluation, the maximum aggregation response was determined and the percentage inhibition compared with the control was calculated therefrom.
Inhibition of Platelet Pggregation in vitro
as §2, with “For these investigations, 445” for “For the investigations, 445”

[3] = molecular target: T1, soluble guanylate cyclase (Sus scrofa, UniProt A0A4X1U7N1+A0ACM8Q7I6); experiment: Stimulation of soluble guanylate cyclase in primary endothelial cells (intracellular cGMP, radioimmunological); assay type: cell-based; conditions: 10 min, test substance 1 μM, 10-minute incubation, primary pig aortic endothelial cells, with or without SNP 1 μM (not stated which), read-out: % increase in cGMP
T1 construct: endogenous in cells; host or cells: primary endothelial cells from pig aorta
T1 sequence (A0A4X1U7N1 1-619): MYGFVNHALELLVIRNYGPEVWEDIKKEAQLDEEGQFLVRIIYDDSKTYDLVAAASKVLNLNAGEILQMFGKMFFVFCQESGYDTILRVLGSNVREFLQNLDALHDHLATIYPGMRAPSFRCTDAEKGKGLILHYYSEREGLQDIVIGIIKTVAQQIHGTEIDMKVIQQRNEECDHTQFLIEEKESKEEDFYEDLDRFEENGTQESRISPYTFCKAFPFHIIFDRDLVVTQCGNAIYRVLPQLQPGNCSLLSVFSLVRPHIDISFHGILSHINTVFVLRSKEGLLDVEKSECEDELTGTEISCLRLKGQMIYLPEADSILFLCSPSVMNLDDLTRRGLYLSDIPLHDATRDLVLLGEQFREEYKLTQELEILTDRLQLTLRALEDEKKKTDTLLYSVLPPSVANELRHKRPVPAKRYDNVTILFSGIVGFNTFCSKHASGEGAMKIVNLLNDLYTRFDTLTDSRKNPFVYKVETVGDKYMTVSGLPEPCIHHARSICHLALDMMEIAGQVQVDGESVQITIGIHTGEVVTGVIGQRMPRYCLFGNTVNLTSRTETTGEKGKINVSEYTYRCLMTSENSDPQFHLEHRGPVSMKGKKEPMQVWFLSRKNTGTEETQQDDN
T1 sequence (A0ACM8Q7I6 1-688): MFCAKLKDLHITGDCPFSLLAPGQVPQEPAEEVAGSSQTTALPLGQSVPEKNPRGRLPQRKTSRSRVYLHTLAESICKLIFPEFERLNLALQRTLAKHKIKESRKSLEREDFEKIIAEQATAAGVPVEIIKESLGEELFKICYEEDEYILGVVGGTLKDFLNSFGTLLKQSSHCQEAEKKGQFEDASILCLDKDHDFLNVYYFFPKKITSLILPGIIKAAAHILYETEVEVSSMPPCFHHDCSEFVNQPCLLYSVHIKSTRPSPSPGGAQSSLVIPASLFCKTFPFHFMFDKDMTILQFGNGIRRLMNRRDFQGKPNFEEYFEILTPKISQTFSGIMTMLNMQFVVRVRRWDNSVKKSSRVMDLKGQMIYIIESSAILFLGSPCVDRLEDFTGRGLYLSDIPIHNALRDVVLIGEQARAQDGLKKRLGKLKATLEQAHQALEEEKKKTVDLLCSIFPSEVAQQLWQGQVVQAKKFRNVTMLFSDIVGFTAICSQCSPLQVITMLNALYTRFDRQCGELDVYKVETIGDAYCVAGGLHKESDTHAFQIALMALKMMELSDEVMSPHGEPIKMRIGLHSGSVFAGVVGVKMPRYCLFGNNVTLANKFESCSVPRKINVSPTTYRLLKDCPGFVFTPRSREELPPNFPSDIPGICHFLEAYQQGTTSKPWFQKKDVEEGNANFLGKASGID
Method: Stimulation of Soluble Guanylate Cyclase in Primary Endothelial Cells
(§3) Primary endothelial cells were isolated from pig aortas by treatment with collagenase solution. The cells were then cultured in a culture medium until confluence was reached. For the investigations, the cells were subjected to passaging, sown in cell culture plates and subcultured until confluence was reached. To stimulate the endothelial guanylate cyclase, the culture medium was suctioned off and the cells were washed once with Ringer's solution and incubated in stimulation buffer with or without an NO donor (sodium nitroprusside, SNP, 1 μM). Thereafter, the test substances (final concentration 1 μM) were pipetted onto the cells. At the end of the 10-minute incubation period, the buffered solution was suctioned off and the cells were lysed at −20° C. for 16 hours. The intracellular cGMP was then determined radioimmunologically.
as §3, with “sucked” for “suctioned”
as §3, with “without” for “without an”, “buffer” for “buffered”

activation at 1 µM ([3]; embodiment IV) [%]	IC50 ([1]; iv, embodiment IV) [µM]	SMILES	also measured
–	–	OCc1cccc(-c2nn(Cc3ccccc3F)c3ccccc23)n1 [II-62]	melting point: 99 °C; IC50 ([1]; embodiment II): 13 µM
–	–	OCc1cnc(-c2nn(Cc3ccccc3)c3ccccc23)o1 [III-71, 1-Benzyl-3-(5-hydroxymethyl-oxazol-2-yl)-indazole]	IC50 ([2]; embodiment III): 50 µg/mL (≈ 164 µM); activation at 1 µM ([3]; embodiment III): 315%; IC50 ([1]; embodiment III): 5 µM
–	–	CCOC(=O)c1csc(-c2nn(Cc3ccccc3)c3ccccc23)n1 [III-72, Ethyl 2-(1-benzyl-indazol-3-yl)-thiazole-4-carboxylate]	IC50 ([2]; embodiment III): 1 µg/mL (≈ 2.75 µM)
> 1000	7.2	N#Cc1ccccc1Cn1nc(-c2ccc(CO)o2)c2ccccc21 [IV-136, 1-(^2-Cyanobenzyl)-3-(5-hydroxymethylfuran-2-yl)-indazole]	IC50 ([2]; embodiment IV): 30 µg/mL (≈ 91.1 µM)
289	12	OCc1coc(-c2nn(Cc3ccccc3)c3ccccc23)c1 [IV-164]	–
256	29	OCc1ccc(-c2nn(Cc3c(F)cccc3F)c3ccccc23)o1 [IV-165]	–
921	11	Cc1cc(-c2nn(Cc3ccccc3)c3ccccc23)oc1CO [IV-179]	–
–	–	Cc1nc(-c2nn(Cc3ccccc3F)c3ccccc23)oc1CN1C(=O)c2ccccc2C1=O [Process Example 11, 2-[1-(2-fluorobenzyl)-indazole-3-yl]-4-methyl-5-(N-phthalimidomethyl)-oxazole]	melting point: 175 to 177 °C
